According to patent US20120107385A1, “METHOD OF TREATING CONDITIONS ASSOCIATED WITH OVERACTIVE BLADDER” (priority 2010, published 2012):

Assay: Plasma oxybutynin and N-desethyloxybutynin following oral and intravaginal administration in dogs (14 day study)
Protocol: A study was conducted to determine the levels of oxybutynin and its active metabolite, N-desethyloxybutynin, present in plasma following oral and intravaginal administration of oxybutynin in dogs.
A 14 day study was conducted, where 8 young adult females were randomly assigned to 4 groups of 2 dogs each.

plasma level of oxybutynin at 8 h or more after oral dosing (oral 10 mg/day): ≤ 2.75 ng/mL | time after dosing at which Cmax of oxybutynin was achieved (plasma): 3 h
Compound: CCN(CC)CC#CCOC(=O)C(O)(c1ccccc1)C1CCCCC1 (centres unmarked) [oxybutynin, 4-diethylaminobut-2-ynyl2-cyclohexyl-2-hydroxy-2-phenyl-ethanoate]
